Data from patent publication US11926596B2, “Inhibitors of Rho associated coiled-coil containing protein kinase” (KADMON CORPORATION, LLC, priority 2017, dated 2024).
Where two headings read alike, the source gives them in different places.

Key:
[1] = test system: phospho-myosin light chains (ppMlc, Thr18/Ser19) in A7R5 cells; test: A7R5 in-cell ELISA, phospho-myosin light chain; type: cell-based, rat; conditions: for IC50 / inhibition at 10 µM: Rattus norvegicus, A7R5 cells; for inhibition at 10 µM: read-out: pMLC % inh A7R5
Description: Determination of compounds ROCK inhibitory activity in A7R5 cells: rat aortic smooth muscle cell line A7R5 cells were maintained and treated in DMEM medium with 10% of fetal bovine serum. Cells were seeded with density of 5,000 cells/well in 96-well plates for 24 hours and subsequently treated 90 min with testing compounds. Cells were then fixed and processed according to the In-Cell ELISA Colorimetric Detection Kit manual (Thermo Scientific). Cellular phospho-myosin light chains (ppMlc, Thr18/Ser19) levels were determined after treatments of DMSO control or test compounds using the In-Cell ELISA kit. The percent inhibition rate was calculated by applying the data obtained with 1 μM (or 10 μM) compound treatment to the formula, [1-(compound/DMSO)]×100%. ppMlc data obtained with 9 points 2-fold serial dilution of compounds were applied to the nonlinear regression curve fit function of the GraphPad Prism software to calculate the In cell IC50s.
A7R5 cells were treated with 9 points 2 fold serial dilution of compounds and ppMlc (T18/S19) levels were determined in order to calculate cellular IC50s of the compounds.
Two steps of measurements were adopted for pMLC/A7R5 IC50. Percent inhibition rates were calculated with a single dose (1 μM or 10 μM) compounds treatment to screen for active compounds and then cellular IC50s were measured only in compounds that have over 50% of inhibition rates.

[2] = biological target: T1, recombinant ROCK1 (amino acids 1-535) (Homo sapiens, UniProt Q13464); test: Z'-lyte kinase assay, ROCK1; type: biochemical; conditions: for inhibition at 3 µM: read-out: ROCK1 % inh
T1 construct: recombinant ROCK1 (amino acids 1-535) and ROCK2; purchased ThermoFisher Scientific
T1 sequence (Q13464 1-535): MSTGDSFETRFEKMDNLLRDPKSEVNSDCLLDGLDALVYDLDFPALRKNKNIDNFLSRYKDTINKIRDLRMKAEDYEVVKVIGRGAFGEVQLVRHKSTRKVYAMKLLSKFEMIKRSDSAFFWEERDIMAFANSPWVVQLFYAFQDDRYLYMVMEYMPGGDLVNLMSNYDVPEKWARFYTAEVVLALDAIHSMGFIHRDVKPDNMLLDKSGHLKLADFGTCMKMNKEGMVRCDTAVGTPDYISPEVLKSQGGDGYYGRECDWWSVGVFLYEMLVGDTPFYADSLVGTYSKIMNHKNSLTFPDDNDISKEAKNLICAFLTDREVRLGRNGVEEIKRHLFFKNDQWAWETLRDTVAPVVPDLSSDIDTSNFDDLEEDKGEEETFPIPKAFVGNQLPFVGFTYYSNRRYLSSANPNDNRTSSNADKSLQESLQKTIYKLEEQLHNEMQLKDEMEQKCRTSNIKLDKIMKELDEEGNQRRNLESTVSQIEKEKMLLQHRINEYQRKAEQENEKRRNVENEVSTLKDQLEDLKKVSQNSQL
Description: (§1) Determination of compounds ROCK inhibitory activity in vitro (Z'lyte assay): recombinant ROCK1 (amino acids 1-535) and ROCK2 (amino acids 1-552) proteins were purchased from ThermoFisher Scientific. Compounds activities were measured by Z′-lyte kinase kit (ThermoFisher Scientific) and IC50s were calculated.
(§2) Table 2, below, provides in vitro and cellular inhibition of ROCKs by compounds of the invention. Compounds activities were measured by Z′-lyte kinase kit (ThermoFisher Scientific). […] IC50s were calculated using the GraphPad Prism software with kinase activities data that were collected from points 9 serial dilution of compounds treatment. The ROCK inhibition in A7R5 cells and NIH3T3 (Acta2-Luc) cells was performed as described above.

[3] = biological target: T2, recombinant ROCK2 (amino acids 1-552) (Homo sapiens, UniProt O75116); test: Z'-lyte kinase assay, ROCK2; type: biochemical
T2 construct: ROCK2 (amino acids 1-552) proteins were purchased from ThermoFisher Scientific; purchased ThermoFisher Scientific
T2 sequence (O75116 1-552): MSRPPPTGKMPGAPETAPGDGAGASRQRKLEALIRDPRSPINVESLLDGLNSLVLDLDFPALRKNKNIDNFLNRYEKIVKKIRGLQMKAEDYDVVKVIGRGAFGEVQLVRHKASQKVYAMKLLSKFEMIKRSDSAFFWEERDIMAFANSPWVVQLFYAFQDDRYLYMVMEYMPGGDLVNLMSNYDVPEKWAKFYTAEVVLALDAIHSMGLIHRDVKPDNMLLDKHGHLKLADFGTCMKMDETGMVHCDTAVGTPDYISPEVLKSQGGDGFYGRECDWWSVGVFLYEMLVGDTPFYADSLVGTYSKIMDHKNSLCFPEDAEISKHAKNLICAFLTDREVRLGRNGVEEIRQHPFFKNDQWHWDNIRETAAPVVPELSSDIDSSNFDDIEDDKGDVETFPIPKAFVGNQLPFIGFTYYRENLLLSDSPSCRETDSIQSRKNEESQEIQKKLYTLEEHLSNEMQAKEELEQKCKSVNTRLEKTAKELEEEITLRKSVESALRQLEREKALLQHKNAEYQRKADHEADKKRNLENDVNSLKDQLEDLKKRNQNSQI
Description: as §1, §2

[4] = test system: luciferase reporter driven by the human ACTA2 gene promoter in NIH3T3 cells; test: NIH3T3 cells Acta2-promoter driven-luciferase assay; type: cell-based; conditions: plus TGF 1, 24 hr, read-out: NIH3T3, Acta2-luc, IC50
Description: NIH3T3 cells Acta2-promoter driven-luciferase assay: A NIH3T3 cell line stably expressing a luciferase reporter driven by the human ACTA2 gene promoter (−1000-1 bp) was established (NIH3T3-Acta2-luciferase). The cells were plated to confluence and treated with the test compounds plus TGF 1 for 24 hr. Cells were then lysed and luciferase activity was measured using the LightSwitch luciferase kit from Active Motif.

[5] = 1.5 h, 90 min, read-out: pMLC IC50 A7R5

CNC(C(=O)Nc1ccc2[nH]ncc2c1)c1ccc(Oc2ccc(OC)cc2)cc1 (stereo not shown) [Example 14, N-(1H-indazol-5-yl)-2-(4-(4-methoxyphenoxy)phenyl)-2-(methylamino)acetamide]
IC50 [1, 5]: 207 nM
IC50 ([1]; ppMlc (T18/S19), 9 points 2 fold serial dilution, read-out: ppMIc IC50): 207 nM
IC50 [2]: 32.6 nM
inhibition at 0.5 µM ([3]; read-out: ROCK2 % inh): 100%
IC50 [4]: 678 nM

CNC(C(=O)Nc1ccc2[nH]ncc2c1)c1ccc(Cl)cc1 (stereo not shown) [Example 16, 2-(4-chlorophenyl)-N-(1H-indazol-5-yl)-2-(methylamino)acetamide]
IC50 [1, 5]: 252 nM
cellular ROCK inhibition compared with Comparative Example 2 ([1]; phosphorylation of the ROCK target pMLC in A7R5 cells): enhanced
IC50 [2]: 3.8 nM
inhibition at 3 µM [2]: 93.2%
IC50 [3]: 15 nM
inhibition at 1 µM ([3]; @ 1 μM, read-out: ROCK2 % inh): 99%
IC50 [4]: 915 nM

CCNC(C(=O)Nc1ccc2[nH]ncc2c1)c1ccc(F)cc1 (stereo not shown) [Example 23, 2-(ethylamino)-2-(4-fluorophenyl)-N-(1H-indazol-5-yl)acetamide]
IC50 [1, 5]: 1060 nM
IC50 [2]: 495 nM
inhibition at 3 µM [2]: 94.3%
IC50 [3]: 43 nM
inhibition at 3 µM ([3]; read-out: ROCK2 % inh): 95.3%

CNC(C(=O)Nc1ccc2[nH]ncc2c1)c1ccc(OC)cc1 (stereo not shown) [Example 24, N-(1H-indazol-5-yl)-2-(4-methoxyphenyl)-2-(methylamino)acetamide]
IC50 [1, 5]: 224 nM
IC50 [2]: 3.89 nM
inhibition at 3 µM [2]: 99%
IC50 [3]: 3.6 nM
inhibition at 3 µM ([3]; read-out: ROCK2 % inh): 98.8%
IC50 [4]: 321 nM

COc1ccc(C(NC(C)C)C(=O)Nc2ccc3[nH]ncc3c2)cc1 (stereo not shown) [Example 25, N-(1H-indazol-5-yl)-2-(isopropylamino)-2-(4-methoxyphenyl)acetamide]
IC50 [1, 5]: 633 nM
IC50 [2]: 10.6 nM
inhibition at 3 µM [2]: 99%
IC50 [3]: 9.7 nM
inhibition at 3 µM ([3]; read-out: ROCK2 % inh): 98.8%

CCNC(C(=O)Nc1ccc2[nH]ncc2c1)c1ccc(OC)cc1 (stereo not shown) [Example 26, 2-(ethylamino)-N-(1H-indazol-5-yl)-2-(4-methoxyphenyl)acetamide]
IC50 [1, 5]: 261 nM
IC50 [2]: 24 nM
inhibition at 3 µM [2]: 99%
IC50 [3]: 12 nM
inhibition at 3 µM ([3]; read-out: ROCK2 % inh): 98.8%
IC50 [4]: 845 nM

COc1ccc(C(NC2CC2)C(=O)Nc2ccc3[nH]ncc3c2)cc1 (stereo not shown) [Example 27, 2-(cyclopropylamino)-N-(1H-indazol-5-yl)-2-(4-methoxyphenyl)acetamide]
IC50 [1, 5]: 2980 nM
IC50 [2]: 79 nM
IC50 [3]: 66 nM

CNC(C(=O)Nc1ccc2[nH]ncc2c1)c1ccc(C)cc1 (stereo not shown) [Example 28, N-(1H-indazol-5-yl)-2-(methylamino)-2-(p-tolyl)acetamide]
IC50 [1, 5]: 834 nM
IC50 [2]: 17.8 nM
inhibition at 3 µM [2]: 99%
IC50 [3]: 21.2 nM
inhibition at 3 µM ([3]; read-out: ROCK2 % inh): 98.8%

Cc1ccc(C(NC(C)C)C(=O)Nc2ccc3[nH]ncc3c2)cc1 (stereo not shown) [Example 29, N-(1H-indazol-5-yl)-2-(isopropylamino)-2-(p-tolyl)acetamide]
IC50 [1, 5]: 934 nM
IC50 [2]: 65.7 nM
inhibition at 3 µM [2]: 99%
IC50 [3]: 6.3 nM
inhibition at 3 µM ([3]; read-out: ROCK2 % inh): 98.8%

CCNC(C(=O)Nc1ccc2[nH]ncc2c1)c1ccc(C)cc1 (stereo not shown) [Example 30, 2-(ethylamino)-N-(1H-indazol-5-yl)-2-(p-tolyl)acetamide]
IC50 [1, 5]: 502 nM
IC50 [2]: 16 nM
inhibition at 3 µM [2]: 99%
IC50 [3]: 13 nM
inhibition at 3 µM ([3]; read-out: ROCK2 % inh): 98.8%
IC50 [4]: 960 nM

Cc1ccc(C(NC2CC2)C(=O)Nc2ccc3[nH]ncc3c2)cc1 (stereo not shown) [Example 31, 2-(cyclopropylamino)-N-(1H-indazol-5-yl)-2-(p-tolyl)acetamide]
inhibition at 10 µM [1]: 35%
IC50 [2]: 228 nM
IC50 [3]: > 1000 nM

CNC(C(=O)Nc1ccc2[nH]ncc2c1)c1ccc(-c2ccccc2OC)cc1 (stereo not shown) [Example 32, N-(1H-indazol-5-yl)-2-(2′-methoxy-[1,1′-biphenyl]-4-yl)-2-(methylamino)acetamide]
inhibition at 10 µM [1]: 5%
IC50 [2]: 310 nM
IC50 [3]: > 1000 nM

COc1ccc(C(NC(C)(C)C)C(=O)Nc2ccc3[nH]ncc3c2)cc1 (stereo not shown) [Example 36, 2-(tert-butylamino)-N-(1H-indazol-5-yl)-2-(4-methoxyphenyl)acetamide]
IC50 [1, 5]: 766 nM
IC50 [2]: 24.7 nM
inhibition at 3 µM [2]: 99%
IC50 [3]: 9.9 nM
inhibition at 3 µM ([3]; read-out: ROCK2 % inh): 98.8%

CC(C)(C)NC(C(=O)Nc1ccc2[nH]ncc2c1)c1ccccc1 (stereo not shown) [Example 37, 2-(tert-butylamino)-N-(1H-indazol-5-yl)-2-phenylacetamide]
IC50 [1, 5]: 2600 nM
IC50 [2]: 98.1 nM
inhibition at 3 µM [2]: 99%
IC50 [3]: 74.3 nM
inhibition at 3 µM ([3]; read-out: ROCK2 % inh): 98.8%

Cc1ccc(C(NC(C)(C)C)C(=O)Nc2ccc3[nH]ncc3c2)cc1 (stereo not shown) [Example 38, 2-(tert-butylamino)-N-(1H-indazol-5-yl)-2-(p-tolyl)acetamide]
IC50 [1, 5]: 1340 nM
IC50 [2]: 61.4 nM
inhibition at 3 µM [2]: 100%
IC50 [3]: 27.4 nM
inhibition at 3 µM ([3]; read-out: ROCK2 % inh): 100%

CNC(C(=O)Nc1ccc2[nH]ncc2c1)c1cccnc1 (stereo not shown) [Example 39, N-(1H-indazol-5-yl)-2-(methylamino)-2-(pyridin-3-yl)acetamide]
IC50 [1, 5]: 4200 nM
IC50 [2]: 250 nM
IC50 [3]: 213 nM

CNC(C(=O)Nc1ccc2[nH]ncc2c1)c1ccccn1 (stereo not shown) [Example 40, N-(1H-indazol-5-yl)-2-(methylamino)-2-(pyridin-2-yl)acetamide]
inhibition at 10 µM [1]: 37%
IC50 [2]: 143 nM
IC50 [3]: 453 nM

CNC(C(=O)Nc1ccc2[nH]ncc2c1)c1cccc(Cl)c1 (stereo not shown) [Example 42, 2-(3-chlorophenyl)-N-(1H-indazol-5-yl)-2-(methylamino)acetamide]
IC50 [1, 5]: 454 nM
IC50 [2]: 8.8 nM
IC50 [3]: 16 nM
IC50 [4]: 882 nM

CCNC(C(=O)Nc1ccc2[nH]ncc2c1)c1cccc(F)c1 (stereo not shown) [Example 51, 2-(ethylamino)-2-(3-fluorophenyl)-N-(1H-indazol-5-yl)acetamide]
IC50 [1, 5]: 1660 nM
IC50 [3]: 53 nM
IC50 [4]: 5450 nM

CNC(C(=O)Nc1ccc2[nH]ncc2c1)c1cccc(C)c1 (stereo not shown) [Example 52, N-(1H-indazol-5-yl)-2-(methylamino)-2-(m-tolyl)acetamide]
IC50 [1, 5]: 532 nM
IC50 [3]: 34 nM
IC50 [4]: 1510 nM

CNC(C(=O)Nc1ccc2[nH]ncc2c1)c1cccc(F)c1 (stereo not shown) [Example 53, 2-(3-fluorophenyl)-N-(1H-indazol-5-yl)-2-(methylamino)acetamide]
IC50 [1, 5]: 914 nM
IC50 [3]: 41 nM
IC50 [4]: 1160 nM

CN[C@@H](C(=O)Nc1ccc2[nH]ncc2c1)c1cccc(OC)c1 [Example 54, (R)-N-(1H-indazol-5-yl)-2-(3-methoxyphenyl)-2-(methylamino)acetamide]
IC50 [1, 5]: 200 nM
IC50 [3]: 14 nM
IC50 [4]: 268 nM

CN[C@H](C(=O)Nc1ccc2[nH]ncc2c1)c1cccc(OC)c1 [Example 55, (S)-N-(1H-indazol-5-yl)-2-(3-methoxyphenyl)-2-(methylamino)acetamide]
IC50 [1, 5]: 589 nM
IC50 [3]: 30 nM
IC50 [4]: 773 nM

CNC(C(=O)Nc1ccc2[nH]ncc2c1)c1ccc(OC(F)(F)F)cc1 (stereo not shown) [Example 56, N-(1H-indazol-5-yl)-2-(methylamino)-2-(4-(trifluoromethoxy)phenyl)acetamide]
IC50 [1, 5]: 546 nM
IC50 [3]: 46 nM
IC50 [4]: 666 nM

CNC(C(=O)Nc1ccc2[nH]ncc2c1)c1ccc(OC)c(F)c1 (stereo not shown) [Example 57, 2-(3-fluoro-4-methoxyphenyl)-N-(1H-indazol-5-yl)-2-(methylamino)acetamide]
IC50 [1, 5]: 339 nM
IC50 [3]: 25 nM
inhibition at 0.5 µM ([3]; read-out: ROCK2 % inh): 95%
IC50 [4]: 473 nM
